From patent US20240226343A1, “NEUROPEPTIDE Y1 RECEPTOR (NPY1R) TARGETED THERAPEUTICS AND USES THEREOF” (RADIONETICS ONCOLOGY, INC., priority 2022, published 2024)

Molecular target: T1, hNPY1R (Homo sapiens, UniProt P25929)
T1 construct: SK-N-MC cells endogenously expressing the NPY1R receptor; endogenous in cells; host or cells: SK-N-MC cells (crude membrane fractions)
T1 sequence (P25929 1-384): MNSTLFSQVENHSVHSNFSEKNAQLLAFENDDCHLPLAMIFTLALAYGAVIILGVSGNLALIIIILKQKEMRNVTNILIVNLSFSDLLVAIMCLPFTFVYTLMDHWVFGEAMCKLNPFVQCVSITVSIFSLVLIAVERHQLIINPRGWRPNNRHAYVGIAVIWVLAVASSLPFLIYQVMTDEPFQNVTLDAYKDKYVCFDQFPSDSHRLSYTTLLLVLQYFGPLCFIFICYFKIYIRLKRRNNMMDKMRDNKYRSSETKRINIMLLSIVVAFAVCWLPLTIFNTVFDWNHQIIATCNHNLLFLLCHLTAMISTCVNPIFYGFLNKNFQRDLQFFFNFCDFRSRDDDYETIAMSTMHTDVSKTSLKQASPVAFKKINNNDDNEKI
Assay: NPY1R binding assay: SK-N-MC membranes, [125I]-Peptide YY (human) competition
Conditions: data obtained after 60 minutes at 37° C.; SK-N-MC membranes; [125I]-Peptide YY 0.05 nM; read-out: hNPY1R binding Ki* †
Experimental: Crude membrane fractions are prepared from SK-N-MC cells endogenously expressing the NPY1R receptor. The cells are grown to 85-100% confluence on standard tissue culture dishes in Eagle's Minimum Essential Medium supplemented with 10% dialyzed FBS. To prepare membranes, cells are scraped and collected in 1× Dulbecco's phosphate buffered saline and then pelleted at 1000 RPM's. The cell pellet is reconstituted in membrane preparation buffer (20 mM HEPES, 6 mM MgCl2 and 1 mM EGTA, protease inhibitor tablets, pH 7.4) and placed in a cell disruption vessel at 1000 PSI for 30 minutes on ice. The pressurized contents are then released and spun down at 1000 RPMs and the supernatant is collected and further centrifuged at 15,000 RPMs to pellet the membranes. The membrane pellet is resuspended in membrane preparation buffer, snap frozen and stored at −80° C. for later use.
[…] Assay contents are then filtered through unifilter GF/C microplates and washed with 9×400 μl of cold wash buffer (25 mM HEPES, 5 mM MgCl2, 1 mM CaCl2), 500 mM NaCl, 0.1% Tween-20, pH 7.4). Assay plates are read using a Top Count NXT and Ki values for compounds are determined using a GraphPad Prism 6 non-linear regression analysis.

Row | Compound | Ki
1 | N=C(N)NCCC[C@@H](NC(=O)C(c1ccccc1)c1cccc(OCCOCCOCCOCCOCCNC(=O)CN2CCN(CC(=O)O)CCN(CC(=O)O)CCN(CC(=O)O)CC2)c1)C(=O)NCc1ccc(CNC(N)=O)cc1 (stereo partly drawn) [Compound 113A, 2,2′,2″-(10-(17-(3-(2-(((R)-5-guanidino-1-oxo-1-((4-(ureidomethyl)benzyl)amino)pentan-2-yl)amino)-2-oxo-1-phenylethyl)phenoxy)-2-oxo-6,9,12,15-tetraoxa-3-azaheptadecyl)-1,4,7,10-tetraazacyclododecane-1,4,7-triyl)triacetic acid—2,2,2-trifluoroacetic acid (1/1)] | > 100 nM
2 | CCC(=O)NCCNC(=O)/N=C(/N)NCCC[C@@H](NC(=O)C(c1ccccc1)c1cccc(OCCCCNC(=O)CCOCCNC(=O)CN2CCN(CC(=O)O)CCN(CC(=O)O)CCN(CC(=O)O)CC2)c1)C(=O)NCc1ccc(O)cc1 (single isomer, unassigned) [Compound 108A] | < 10 nM
3 | CCC(=O)NCCNC(=O)/N=C(/N)NCCC[C@@H](NC(=O)C(c1ccccc1)c1cccc(OCCCCNC(=O)[C@H](CS(=O)(=O)O)NC(=O)CN2CCN(CC(=O)O)CCN(CC(=O)O)CCN(CC(=O)O)CC2)c1)C(=O)NCc1ccc(O)cc1 (single isomer, unassigned) [Compound 107A] | 10 to 100 nM
4 | CCC(=O)NCCNC(=O)/N=C(/N)NCCC[C@@H](NC(=O)C(c1ccccc1)c1ccc(NC(=O)CCOCCOCCOCCOCCNC(=O)CN2CCN(CC(=O)O)CCN(CC(=O)O)CCN(CC(=O)O)CC2)cc1)C(=O)NCc1ccc(O)cc1 (single isomer, unassigned) [Compound 102A] | 10 to 100 nM
5 | CCC(=O)NCCNC(=O)/N=C(/N)NCCC[C@@H](NC(=O)C(c1ccccc1)c1cccc(OCCCCNC(=O)[C@H](N)CCCCNC(=O)CN2CCN(CC(=O)O)CCN(CC(=O)O)CCN(CC(=O)O)CC2)c1)C(=O)NCc1ccc(O)cc1 (single isomer, unassigned) [Compound 109A] | < 10 nM
6 | CCC(=O)NCCNC(=O)/N=C(/N)NCCC[C@@H](NC(=O)C(c1ccccc1)c1cccc(OCCCCNC(=O)CNC(=O)[C@@H](CC(N)=O)NC(=O)CN2CCN(CC(=O)O)CCN(CC(=O)O)CCN(CC(=O)O)CC2)c1)C(=O)NCc1ccc(O)cc1 (single isomer, unassigned) [Compound 112A] | 10 to 100 nM
7 | CCC(=O)NCCNC(=O)/N=C(/N)NCCC[C@@H](NC(=O)C(c1ccccc1)c1cccc(OCCOCCOCCOCCOCCNC(=O)CN2CCN(CC(=O)O)CCN(CC(=O)O)CCN(CC(=O)O)CC2)c1)C(=O)NCc1ccc(O)cc1 (single isomer, unassigned) [Compound 101A] | < 10 nM
8 | CCC(=O)NCCNC(=O)/N=C(/N)NCCC[C@@H](NC(=O)C(c1ccccc1)c1ccc(NCCCNc2c(NCCNC(=O)CN3CCN(CC(=O)O)CCN(CC(=O)O)CCN(CC(=O)O)CC3)c(=O)c2=O)cc1)C(=O)NCc1ccc(O)cc1 (single isomer, unassigned) [Compound 124B] | < 10 nM

Same assay, conditions: data obtained after 120 minutes at rt; SK-N-MC membranes; [125I]-Peptide YY; read-out: hNPY.R binding Ki* ††

Row | Compound | Ki
9 | CCNC(=O)/N=C(/N)NCCC[C@@H](NC(=O)C(c1ccccc1)c1cccc(OCCCCNC(=O)[C@@H](Cc2ccc(-c3ccccc3)cc2)NC(=O)[C@@H](CN)NC(=O)CN2CCN(CC(=O)O)CCN(CC(=O)O)CCN(CC(=O)O)CC2)c1)C(=O)NCc1ccc(O)cc1 (single isomer, unassigned) [Compound 148B] | < 10 nM
10 | CCC(=O)NCCNC(=O)/N=C(/N)NCCC[C@@H](NC(=O)C(c1ccccc1)c1cccc(OCCCCNC(=O)CCCCCNC(=O)CN2CCN(CC(=O)O)CCN(CC(=O)O)CCN(CC(=O)O)CC2)c1)C(=O)NCc1ccc(O)cc1 (single isomer, unassigned) [Compound 140A] | < 10 nM
11 | CCC(=O)NCCNC(=O)/N=C(/N)NCCC[C@@H](NC(=O)C(c1ccccc1)c1ccc(NCCCNC(=O)[C@H](N)CCCNC(=O)CN2CCN(CC(=O)O)CCN(CC(=O)O)CCN(CC(=O)O)CC2)cc1)C(=O)NCc1ccc(O)cc1 (single isomer, unassigned) [Compound 135A] | < 10 nM
12 | CCC(=O)NCCNC(=O)/N=C(/N)NCCC[C@@H](NC(=O)C(c1ccccc1)c1ccc(NCCCNC(=O)[C@H]2CC[C@H](CNC(=O)CN3CCN(CC(=O)O)CCN(CC(=O)O)CCN(CC(=O)O)CC3)CC2)cc1)C(=O)NCc1ccc(O)cc1 (stereo partly drawn) [Compound 158, 2,2′,2″-(10-(2-((((1R,4r)-4-((3-((4-((4R,Z)-9-amino-4-((4-hydroxybenzyl)carbamoyl)-2,11,16-trioxo-1-phenyl-3,8,10,12,15-pentaazaoctadec-9-en-1-yl)phenyl)amino)propyl)carbamoyl)cyclohexyl)methyl)amino)-2-oxoethyl)-1,4,7,10-tetraazacyclododecane-1,4,7-triyl)triacetic acid] | < 10 nM
13 | CCC(=O)NCCNC(=O)/N=C(/N)NCCC[C@@H](NC(=O)C(c1ccccc1)c1cccc(OCCCCNC(=O)CCOCCOCCOCCOCCOCCOCCOCCOCCOCCOCCOCCOCCOCCOCCOCCOCCOCCOCCOCCOCCOCCOCCOCCOCCOCCOCCOCCOCCOCCOCCOCCOCCOCCOCCOCCOCCNC(=O)CN2CCN(CC(=O)O)CCN(CC(=O)O)CCN(CC(=O)O)CC2)c1)C(=O)NCc1ccc(O)cc1 (stereo partly shown) [Compound 126] | 10 to 100 nM
14 | CCC(=O)NCCNC(=O)/N=C(/N)NCCC[C@@H](NC(=O)C(c1ccccc1)c1cccc(OCCCCNc2c(NCCNC(=O)[C@@H](CN)NC(=O)CN3CCN(CC(=O)O)CCN(CC(=O)O)CCN(CC(=O)O)CC3)c(=O)c2=O)c1)C(=O)NCc1ccc(O)cc1 (single isomer, unassigned) [Compound 115A] | < 10 nM
15 | CCC(=O)NCCNC(=O)/N=C(/N)NCCC[C@@H](NC(=O)C(c1ccccc1)c1cccc(OCCCCNC(=O)[C@H](N)CCCCNC(=O)c2ccc(CNC(=O)CN3CCN(CC(=O)O)CCN(CC(=O)O)CCN(CC(=O)O)CC3)cc2)c1)C(=O)NCc1ccc(O)cc1 (single isomer, unassigned) [Compound 142A] | < 10 nM
16 | CCC(=O)NCCNC(=O)/N=C(/N)NCCC[C@@H](NC(=O)C(c1ccccc1)c1cccc(OCCCCNC(=O)NOCCNC(=O)CN2CCN(CC(=O)O)CCN(CC(=O)O)CCN(CC(=O)O)CC2)c1)C(=O)NCc1c(F)cc(O)cc1F (single isomer, unassigned) [Compound 163A] | < 10 nM
17 | CCC(=O)NCCNC(=O)/N=C(/N)NCCC[C@@H](NC(=O)C(c1ccccc1)c1cccc(OCCCCNC(=O)CCCCCNC(=O)CN2CCN(CC(=O)O)CCN(CC(=O)O)CCN(CC(=O)O)CC2)c1)C(=O)NCc1c(F)cc(O)cc1F (single isomer, unassigned) [Compound 161B] | < 10 nM
18 | CCC(=O)NCCNC(=O)/N=C(/N)NCCC[C@@H](NC(=O)C(c1ccccc1)c1cccc(OCCCCNC(=O)NOCCNC(=O)CN2CCN(CC(=O)O)CCN(CC(=O)O)CCN(CC(=O)O)CC2)c1)C(=O)NCc1c(F)cc(O)cc1F (single isomer, unassigned) [Compound 163B] | < 10 nM
19 | CCC(=O)NCCNC(=O)/N=C(/N)NCCC[C@@H](NC(=O)C(c1ccccc1)c1cccc(OCCCCNc2c(NCCNC(=O)[C@@H](CN)NC(=O)CN3CCN(CC(=O)O)CCN(CC(=O)O)CCN(CC(=O)O)CC3)c(=O)c2=O)c1)C(=O)NCc1ccc(O)cc1 (single isomer, unassigned) [Compound 115B] | < 10 nM
20 | CCC(=O)NCCNC(=O)/N=C(/N)NCCC[C@@H](NC(=O)C(c1ccccc1)c1ccc(NCCCNC(=O)c2ccc(C(=O)NCCCCNC(=O)CN3CCN(CC(=O)O)CCN(CC(=O)O)CCN(CC(=O)O)CC3)cc2)cc1)C(=O)NCc1ccc(O)cc1 (stereo partly drawn) [Compound 157, 2,2′,2″-(10-(2-((4-(4-((3-((4-((4R,Z)-9-amino-4-((4-hydroxybenzyl)carbamoyl)-2,11,16-trioxo-1-phenyl-3,8,10,12,15-pentaazaoctadec-9-en-1-yl)phenyl)amino)propyl)carbamoyl)benzamido)butyl)amino)-2-oxoethyl)-1,4,7,10-tetraazacyclododecane-1,4,7-triyl)triacetic acid] | < 10 nM
21 | CCC(=O)NCCNC(=O)/N=C(/N)NCCC[C@@H](NC(=O)C(c1ccccc1)c1cccc(OCCCCNC(=O)c2ccc(CNC(=O)CN3CCN(CC(=O)O)CCN(CC(=O)O)CCN(CC(=O)O)CC3)cc2)c1)C(=O)NCc1ccc(O)cc1 (stereo partly drawn) [Compound 123, 2,2′,2″-(10-(2-((4-((4-(3-((4R,Z)-9-amino-4-((4-hydroxybenzyl)carbamoyl)-2,11,16-trioxo-1-phenyl-3,8,10,12,15-pentaazaoctadec-9-en-1-yl)phenoxy)butyl)carbamoyl)benzyl)amino)-2-oxoethyl)-1,4,7,10-tetraazacyclododecane-1,4,7-triyl)triacetic acid] | < 10 nM
22 | CCC(=O)NCCNC(=O)/N=C(/N)NCCC[C@@H](NC(=O)C(c1ccccc1)c1ccc(NCCCNc2c(NCCNC(=O)CN3CCN(CC(=O)O)CCN(CC(=O)O)CCN(CC(=O)O)CC3)c(=O)c2=O)cc1)C(=O)NCc1ccc(O)cc1 (single isomer, unassigned) [Compound 124B] | < 10 nM
